Results: paper PMC7413308 (ARKIVOC : free online journal of organic chemistry, 2018)
“And” between values parts separate entries of the source, which are not always exact repeats. Equal values may be shown once.

Columns and labels:
[1] = In vitro microsomal stability of analogs; type: in vitro ADME, mouse; settings: for half-life / remaining at 2 h / remaining at 1 h: mouse, liver microsomes; for remaining at 2 h / remaining at 1 h: Microsomal stability (MLM) % remaining; for remaining at 2 h: after 2 hr
[2] = In vitro microsomal stability of analogs; type: in vitro ADME, human; settings: for half-life / remaining at 1 h / remaining at 2 h: human, liver microsomes; for remaining at 1 h / remaining at 2 h: Microsomal stability (HLM) % remaining; for remaining at 1 h: footnote d: assessed at 1-hour incubation time; for remaining at 2 h: after 2 hr
[3] = tested on: HEK293 (kidney) cell line; assay: In vitro cytotoxicity, cell viability; type: cell-based; settings: 48 h incubation, Cell-Titer Glo cell viability
[4] = tested on: HEPG2 (liver) cell line; assay: In vitro cytotoxicity, cell viability; type: cell-based; settings: 48 h incubation, Cell-Titer Glo cell viability
[5] = footnote d: assessed at 1-hour incubation time
[6] = footnote a: compound not detected after 10 minutes

Compound `COC(=O)c1ncn2c1[C@H](C)N=C(c1ccccc1F)c1cc(Br)ccc1-2` [4a, (S)-Methyl-8-bromo-6-(2-fluorophenyl)-4-methyl-4H-benzo[f]imidazo[1,5-a][1,4]diazepine-3-carboxylate] has a half-life [1] of 1.93 ± 0.217 h, a remaining at 2 h [1] of 41 ± 0.6% and a half-life [2] of 0.167 ± 0.0167 h. For the same compound, the remaining at 1 h [2] was 2 ± 0.3% and the “HEK293 LD50” value [3] was 98.5 ± 7.9 µM.

With `C#Cc1ccc2c(c1)C(c1ccccc1F)=N[C@@H](C)c1c(C(=O)OC)ncn1-2` [5a, (S)-Methyl-8-ethynyl-6-(2-fluorophenyl)-4-methyl-4H-benzo[f]imidazo[1,5-a][1,4]diazepine-3-carboxylate] the half-life [1] was 3.6 ± 0.467 h, the remaining at 2 h [1] was 62 ± 0.5% and the half-life [2] was 1.98 ± 0.35 h. For the same compound, the remaining at 1 h [2] was 43 ± 0.4% and the “HEK293 LD50” value [3] was 68.2 ± 4.3 µM.

With `C#Cc1ccc2c(c1)C(c1ccccc1F)=N[C@@H](C)c1c(C(=O)OCCC)ncn1-2` [5b, (S)-Propyl-8-ethynyl-6-(2-fluorophenyl)-4-methyl-4H-benzo[f]imidazo[1,5-a][1,4]diazepine-3-carboxylate] the half-life [1] was 0.4 h, the remaining at 1 h [1, 5] was 12 ± 0.2% and the “HEPG2 LD50” value [4] was 56.3 ± 4.0 µM. For the same compound, the half-life [2] was under 0.0833 h and the “HEK293 LD50” value [3] was 53.2 ± 4.4 µM.

In the case of `C#Cc1ccc2c(c1)C(c1ccccc1F)=N[C@@H](C)c1c(C(=O)OC(C)C)ncn1-2` [5c, (S)-Isopropyl-8-ethynyl-6-(2-fluorophenyl)-4-methyl-4H-benzo[f]imidazo[1,5-a][1,4]diazepine-3-carboxylate], the half-life [1] is reported as 3.78 ± 0.267 h, the remaining at 1 h [1, 5] is reported as 83 ± 0.1% and the “HEPG2 LD50” value [4] is reported as 39.9 ± 2.8 µM. The half-life [2] was 0.95 ± 0.0333 h, the remaining at 1 h [2] was 47 ± 0.2% and the “HEK293 LD50” value [3] was 48.9 ± 4.4 µM.

With `C#Cc1ccc2c(c1)C(c1ccccc1F)=N[C@@H](C)c1c(C(=O)OC(C)(C)C)ncn1-2` [5d, (S)-tert-Butyl-8-ethynyl-6-(2-fluorophenyl)-4-methyl-4H-benzo[f]imidazo[1,5-a][1,4]diazepine-3-carboxylate] the half-life [1] was 3.27 ± 0.333 h, the remaining at 1 h [1, 5] was 78 ± 0.2% and the “HEPG2 LD50” value [4] was 21.4 ± 1.9 µM. For the same compound, the half-life [2] was 8.57 ± 1.92 h and the remaining at 1 h [2] was 89 ± 0.2%.

With `C#Cc1ccc2c(c1)C(c1ccccc1F)=N[C@@H](C)c1c(C(=O)OC(C)(C)CC)ncn1-2` [5e, (S)-tert-Pentyl-8-ethynyl-6-(2-fluorophenyl)-4-methyl-4H-benzo[f]imidazo[1,5-a][1,4]diazepine-3-carboxylate] the “HEPG2 LD50” value [4] was 17.1 ± 1.4 µM and the “HEK293 LD50” value [3] was 17.2 ± 1.6 µM.

In the case of `C#Cc1ccc2c(c1)C(c1ccccc1F)=N[C@@H](C)c1c(C(=O)OCC(F)(F)F)ncn1-2` [5f, (S)-2,2,2-Trifluoroethyl-8-ethynyl-6-(2-fluorophenyl)-4-methyl-4H-benzo[f]imidazo[1,5-a][1,4]diazepine-3-carboxylate], the half-life [1] is reported as under 0.0833 h, the “HEPG2 LD50” value [4] is reported as over 400 µM and the half-life [2] is reported as under 0.0833 h. For the same compound, the “HEK293 LD50” value [3] was 138 µM and 138.1 ± 31.8 µM.

For `C#Cc1ccc2c(c1)C(c1ccccc1F)=N[C@@H](C)c1c(C(=O)OC3CC3)ncn1-2` [5g, (S)-Cyclopropyl-8-ethynyl-6-(2-fluorophenyl)-4-methyl-4H-benzo[f]imidazo[1,5-a][1,4]diazepine-3-carboxyl-ate], the “Microsomal stability (MLM) % remaining” value [1, 5] was 11.0 ± 0.2^d %, the “Microsomal stability (MLM) Half-life” value [1, 5] was 19 ± 2^d min and the “HEPG2 LD50” value [4] was 85.1 ± 3.8 µM. For the same compound, the “% remaining in HLM” value ([2]; after 10, 20, and 30 minutes in HLM) was “less than 5%”, the “Microsomal stability (HLM) % remaining” value [2, 6] was < 5.0^a % and the “Microsomal stability (HLM) Half-life” value [2, 6] was < 5^a min. For the same compound, the “HEK293 LD50” value [3] was 35.8 ± 3.3 µM.

`C#Cc1ccc2c(c1)C(c1ccccc1F)=N[C@@H](C)c1c(C(=O)NC)ncn1-2` [8a, (S)-8-Ethynyl-6-(2-fluorophenyl)-N,4-dimethyl-4H-benzo[f]imidazo[1,5-a][1,4]diazepine-3-carboxamide] gave a remaining at 2 h [1] of 86 ± 0.2% and a remaining at 2 h [2] of 92 ± 0.3%.

With `C#Cc1ccc2c(c1)C(c1ccccc1F)=N[C@@H](C)c1c(C(=O)NCC)ncn1-2` [8b, (S)-N-Ethyl-8-ethynyl-6-(2-fluorophenyl)-4-methyl-4H-benzo[f]imidazo[1,5-a][1,4]diazepine-3-carboxamide] the half-life [1] was 32.7 ± 0.767 h, the remaining at 2 h [1] was over 92% and the “HEPG2 LD50” value [4] was 65.4 ± 7.3 µM. For the same compound, the half-life [2] was 33 ± 0.833 h, the remaining at 2 h [2] was over 92% and the “HEK293 LD50” value [3] was 95.5 ± 12.6 µM.
